Converted amounts (≈) assume the structure as drawn.
Legend:
Homo sapiens = species on record: Homo sapiens; assay: Selectivity index, ratio of Ki for human MAO-A to Ki for human MAO-B
[1] = target: T1, Amine oxidase [flavin-containing] A (Homo sapiens, UniProt P21397)
T1 sequence (P21397 whole entry): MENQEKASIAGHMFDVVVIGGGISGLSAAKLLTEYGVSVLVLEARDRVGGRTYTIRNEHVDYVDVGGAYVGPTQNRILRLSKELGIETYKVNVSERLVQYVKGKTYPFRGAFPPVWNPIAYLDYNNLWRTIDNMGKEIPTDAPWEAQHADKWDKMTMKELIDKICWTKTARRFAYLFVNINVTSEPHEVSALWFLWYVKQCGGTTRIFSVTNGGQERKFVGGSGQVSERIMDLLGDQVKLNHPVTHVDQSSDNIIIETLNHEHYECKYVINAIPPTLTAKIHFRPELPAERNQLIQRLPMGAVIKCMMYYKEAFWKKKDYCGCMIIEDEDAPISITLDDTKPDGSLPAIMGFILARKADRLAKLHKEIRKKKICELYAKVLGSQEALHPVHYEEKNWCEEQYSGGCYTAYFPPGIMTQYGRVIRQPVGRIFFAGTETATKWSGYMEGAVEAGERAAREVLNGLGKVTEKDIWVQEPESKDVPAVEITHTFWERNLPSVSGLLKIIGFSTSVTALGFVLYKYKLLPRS

[2] = target: T2, Amine oxidase [flavin-containing] B (Homo sapiens, UniProt P27338)
T2 sequence (P27338 whole entry): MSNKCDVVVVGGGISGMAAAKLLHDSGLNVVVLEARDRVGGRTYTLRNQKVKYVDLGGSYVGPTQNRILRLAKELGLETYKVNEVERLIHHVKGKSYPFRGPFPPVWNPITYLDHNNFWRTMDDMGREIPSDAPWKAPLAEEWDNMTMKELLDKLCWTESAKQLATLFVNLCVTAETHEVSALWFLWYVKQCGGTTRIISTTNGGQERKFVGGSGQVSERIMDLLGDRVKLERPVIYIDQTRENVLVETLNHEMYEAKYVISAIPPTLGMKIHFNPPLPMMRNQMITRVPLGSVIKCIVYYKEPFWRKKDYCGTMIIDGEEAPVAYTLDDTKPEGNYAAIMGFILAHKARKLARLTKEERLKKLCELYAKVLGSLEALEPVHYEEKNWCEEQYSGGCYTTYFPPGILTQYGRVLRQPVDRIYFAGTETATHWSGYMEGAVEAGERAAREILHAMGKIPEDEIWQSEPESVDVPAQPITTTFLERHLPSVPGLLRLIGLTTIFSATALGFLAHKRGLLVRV

Mus musculus [3] = species on record: Mus musculus; assay: Antidepressant activity in mouse assessed as […] by tail suspension test; assay type: functional
Mus musculus [4] = species on record: Mus musculus; assay: Antidepressant activity in mouse assessed as […] by forced swimming test; assay type: functional
Mus musculus [5] = species on record: Mus musculus; assay: Antidepressant activity in Swiss albino mouse assessed as decrease in immobility time by forced swimming test; assay type: functional
Mus musculus [6] = species on record: Mus musculus; assay: Antidepressant activity in Swiss albino mouse assessed as decrease in immobility time by tail suspension test; assay type: functional
Escherichia coli = assay: Antibacterial activity against Escherichia coli incubated for 24 hrs by disc diffusion method; assay type: functional
Aspergillus fumigatus = assay: Antifungal activity against Aspergillus fumigatus incubated for 24 hrs by disc diffusion method; assay type: functional
Aspergillus niger = assay: Antifungal activity against Aspergillus niger incubated for 24 hrs by disc diffusion method; assay type: functional
Aspergillus flavus = assay: Antifungal activity against Aspergillus flavus incubated for 24 hrs by disc diffusion method; assay type: functional
[7] = test system: Mycobacterium tuberculosis; assay: microbe, parasite or virus in culture; details: 120 h
Staphylococcus aureus = assay: microbe, parasite or virus in culture; details: 24 h
Bacillus subtilis = assay: microbe, parasite or virus in culture; details: 24 h
Pseudomonas aeruginosa = assay: microbe, parasite or virus in culture; details: 24 h
Candida albicans = assay: microbe, parasite or virus in culture; details: 24 h
Carbonic anhydrase 1 = Carbonic anhydrase 1 (Homo sapiens, UniProt P00915)
Chain of Carbonic anhydrase 1 (P00915 whole entry): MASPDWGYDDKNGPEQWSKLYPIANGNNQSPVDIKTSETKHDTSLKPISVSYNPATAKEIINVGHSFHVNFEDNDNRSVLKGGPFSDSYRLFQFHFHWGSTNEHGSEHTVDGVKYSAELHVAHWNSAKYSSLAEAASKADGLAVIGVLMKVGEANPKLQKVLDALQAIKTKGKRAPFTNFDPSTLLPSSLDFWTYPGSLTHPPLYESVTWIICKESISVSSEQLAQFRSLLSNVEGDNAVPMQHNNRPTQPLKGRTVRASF

Ca9-22 = assay: Cytotoxicity against human Ca9-22 cells assessed as reduction in cell viability incubated for 48 hrs by MTT assay; assay type: functional
HSC-2 = assay: Cytotoxicity against human HSC-2 cells assessed as reduction in cell viability incubated for 48 hrs by MTT assay; assay type: functional
HSC-3 = assay: Cytotoxicity against human HSC-3 cells assessed as reduction in cell viability incubated for 48 hrs by MTT assay; assay type: functional
[8] = Cytotoxicity against human HGF cells assessed as reduction in cell viability incubated for 48 hrs by MTT assay; assay type: functional
[9] = Cytotoxicity against human HPLF cells assessed as reduction in cell viability incubated for 48 hrs by MTT assay; assay type: functional
[10] = Cytotoxicity against human HPC cells assessed as reduction in cell viability incubated for 48 hrs by MTT assay; assay type: functional
Carbonic anhydrase 12 = Carbonic anhydrase 12 (Homo sapiens, UniProt O43570); assay: Inhibition of human CA12 preincubated for 15 mins by phenol red dye based stopped flow CO2 hydration assay
Chain of Carbonic anhydrase 12 (O43570 whole entry): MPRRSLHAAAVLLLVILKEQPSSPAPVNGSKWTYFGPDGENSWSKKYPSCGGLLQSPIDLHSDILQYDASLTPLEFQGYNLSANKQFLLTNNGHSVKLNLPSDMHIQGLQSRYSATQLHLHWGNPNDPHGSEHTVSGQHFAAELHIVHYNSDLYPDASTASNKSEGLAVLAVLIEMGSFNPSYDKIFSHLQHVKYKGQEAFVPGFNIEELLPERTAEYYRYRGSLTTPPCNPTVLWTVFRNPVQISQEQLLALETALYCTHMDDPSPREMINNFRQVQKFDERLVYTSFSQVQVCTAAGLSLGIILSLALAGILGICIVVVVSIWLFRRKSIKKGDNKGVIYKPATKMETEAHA

Carbonic anhydrase 2 = Carbonic anhydrase 2 (Homo sapiens, UniProt P00918)

Row | SMILES | Ratio Ki (Homo sapiens) | Ki [1] [nM] | Ki [2] [nM] | Time (Mus musculus [3]) [s] | Time (Mus musculus [4]) [s] | other results
1 | COc1ccc(C2=NN(C(=S)Nc3ccccc3)C(c3ccc(F)cc3)C2)cc1 (configuration not stated) | 0.000464 | 0.1 | 200 |  |  | 
2 | COc1ccc(C2CC(c3cccc4ccccc34)=NN2)cc1OC (configuration not stated) |  |  |  | 36.83 | 21.17 | 
3 | CCNC(=S)N1N=C(c2ccccc2)CC1c1ccc(F)cc1 (configuration not stated) | 0.000464 | 0.1 | 200 |  |  | 
4 | Cc1nc(-c2ccc(Br)cc2)ccc1C1=NNC(c2cc(F)cc(F)c2)C1 (configuration not stated) |  |  |  |  |  | Time (Mus musculus [5]): 66.67 s; Time (Mus musculus [6]): 70.33 s
5 | Cc1nc(-c2cccc(Cl)c2Cl)ccc1C1=NNC(c2ccc(Br)cc2)C1 (configuration not stated) |  |  |  |  |  | Time (Mus musculus [5]): 66.67 s; Time (Mus musculus [6]): 70.33 s
6 | C=CCNC(=S)N1N=C(c2ccccc2)CC1c1ccc(F)cc1 (configuration not stated) | 0.000464 | 0.1 | 200 |  |  | 
7 | C=CCNC(=S)N1N=C(c2ccc(Cl)cc2)CC1c1ccc(F)cc1 (configuration not stated) | 0.000464 | 0.1 | 200 |  |  | 
8 | c1coc(C2CC(c3cccc4ccccc34)=NN2)c1 (configuration not stated) |  |  |  | 21.17 | 21.17 | 
9 | Clc1ccc(C2CC(c3ccccn3)=NN2)cc1 (configuration not stated) |  |  |  | 21.17 | 21.17 | 
10 | Cc1nc(-c2ccc(F)cc2)ccc1C1=NNC(c2ccc(Br)cc2)C1 (configuration not stated) |  |  |  |  |  | Time (Mus musculus [5]): 66.67 s; Time (Mus musculus [6]): 70.33 s
11 | Clc1ccc(C2=NNC(c3cccs3)C2)cc1 (configuration not stated) |  |  |  | 21.17 | 21.17 | 
12 | C=CCNC(=S)N1N=C(c2ccc(C)cc2)CC1c1ccc(F)cc1 (configuration not stated) | 0.000464 | 0.1 | 200 |  |  | 
13 | Clc1ccc(C2=NNC(c3ccco3)C2)cc1 (configuration not stated) |  |  |  | 21.17 | 21.17 | 
14 | COc1cc(-c2ccc(C3=NNC(c4ccc(Br)cc4)C3)c(C)n2)cc(OC)c1OC (configuration not stated) |  |  |  |  |  | Time (Mus musculus [5]): 66.67 s; Time (Mus musculus [6]): 70.33 s
15 | COc1ccc(-c2ccc(C3=NNC(c4ccc(Br)cc4)C3)c(C)n2)cc1OC (configuration not stated) |  |  |  |  |  | Time (Mus musculus [5]): 66.67 s; Time (Mus musculus [6]): 70.33 s
16 | Fc1ccc(C2CC(c3ccccc3)=NN2C(=S)Nc2ccccc2)cc1 (configuration not stated) | 0.000464 | 0.1 | 200 |  |  | 
17 | Oc1ccc(C2=NNC(c3ccco3)C2)cc1 (configuration not stated) |  |  |  | 21.17 | 21.17 | 
18 | CCNC(=S)N1N=C(c2ccc(Cl)cc2)CC1c1ccc(F)cc1 (configuration not stated) | 0.000464 | 0.1 | 200 |  |  | 
19 | CNC(=S)N1N=C(c2ccc(C)cc2)CC1c1ccc(F)cc1 (configuration not stated) | 0.000464 | 0.1 | 200 |  |  | 
20 | C=CCNC(=S)N1N=C(c2ccc(OC)cc2)CC1c1ccc(F)cc1 (configuration not stated) |  | 0.1 | 200 |  |  | 

Row | SMILES | Ratio Ki (Homo sapiens) | Ki [1] [nM] | Ki [2] [nM] | Time (Mus musculus [3]) [s] | Time (Mus musculus [4]) [s] | other results
21 | Oc1ccc(C2=NNC(c3cccs3)C2)cc1 (configuration not stated) |  |  |  | 21.17 | 21.17 | 
22 | Cc1nc(-c2ccc(F)cc2)ccc1C1=NNC(c2cc(F)cc(F)c2)C1 (configuration not stated) |  |  |  |  |  | Time (Mus musculus [5]): 66.67 s; Time (Mus musculus [6]): 70.33 s
23 | c1ccc(C2=NNC(c3cccs3)C2)nc1 (configuration not stated) |  |  |  | 21.17 | 21.17 | 
24 | Cc1ccc(C2CC(c3ccccc3)=NN2C(=O)NNS(=O)(=O)c2ccc(F)cc2)cc1 (configuration not stated) |  |  |  |  |  | MIC (Escherichia coli): 25 µg/mL (≈ 55.2 µM); MIC (Aspergillus fumigatus): 25 µg/mL (≈ 55.2 µM); MIC (Aspergillus niger): 25 µg/mL (≈ 55.2 µM); MIC (Aspergillus flavus): 25 µg/mL (≈ 55.2 µM); MIC [7]: 0.8 µg/mL (≈ 1.77 µM); MIC (Staphylococcus aureus): 25 µg/mL (≈ 55.2 µM); MIC (Bacillus subtilis): 25 µg/mL (≈ 55.2 µM); MIC (Pseudomonas aeruginosa): 25 µg/mL (≈ 55.2 µM); MIC (Candida albicans): 25 µg/mL (≈ 55.2 µM)
25 | Cc1nc(-c2ccc(Br)cc2)ccc1C1=NNC(c2ccc(Br)cc2)C1 (configuration not stated) |  |  |  |  |  | Time (Mus musculus [5]): 66.67 s; Time (Mus musculus [6]): 70.33 s
26 | c1csc(C2CC(c3cccc4ccccc34)=NN2)c1 (configuration not stated) |  |  |  | 21.17 | 21.17 | 
27 | CNC(=S)N1N=C(c2ccc(OC)cc2)CC1c1ccc(F)cc1 (configuration not stated) | 0.000464 | 0.1 | 200 |  |  | 
28 | Fc1ccc(C2CC(c3ccc(Cl)cc3)=NN2C(=S)Nc2ccccc2)cc1 (configuration not stated) | 0.000464 | 0.1 | 200 |  |  | 
29 | Cc1nc(-c2cccc(Cl)c2Cl)ccc1C1=NNC(c2cc(F)cc(F)c2)C1 (configuration not stated) |  |  |  |  |  | Time (Mus musculus [5]): 66.67 s; Time (Mus musculus [6]): 70.33 s
30 | NS(=O)(=O)c1ccc(N2N=C(c3ccc(O)cc3)CC2c2cccs2)cc1 (configuration not stated) |  |  |  |  |  | Ki (Carbonic anhydrase 1): 232 nM; CC50 (Ca9-22): 39300 nM; CC50 (HSC-2): 39300 nM; CC50 (HSC-3): 39300 nM; CC50 [8]: 39300 nM; CC50 [9]: 39300 nM; CC50 [10]: 39300 nM; Ki (Carbonic anhydrase 12): 6.2 nM; Ki (Carbonic anhydrase 2): 342 nM
31 | COc1ccc(C2CC(c3ccccn3)=NN2)cc1OC (configuration not stated) |  |  |  | 21.17 | 21.17 | 
32 | CNC(=S)N1N=C(c2ccc(Cl)cc2)CC1c1ccc(F)cc1 (configuration not stated) | 0.000464 | 0.1 | 200 |  |  | 
33 | CNC(=S)N1N=C(c2ccccc2)CC1c1ccc(F)cc1 (configuration not stated) | 0.000464 | 0.1 | 200 |  |  | 
34 | Clc1ccc(C2=NNC(c3ccc(Cl)cc3)C2)cc1 (configuration not stated) |  |  |  | 21.17 | 21.17 | 
35 | CCNC(=S)N1N=C(c2ccc(C)cc2)CC1c1ccc(F)cc1 (configuration not stated) | 0.000464 | 0.1 | 200 |  |  | 
36 | CCNC(=S)N1N=C(c2ccc(OC)cc2)CC1c1ccc(F)cc1 (configuration not stated) | 0.000464 | 0.1 | 200 |  |  | 
37 | Cc1ccc(C2CC(c3ccc(O)cc3)=NN2c2ccc(S(N)(=O)=O)cc2)cc1 (configuration not stated) |  |  |  |  |  | CC50 (Ca9-22): 39300 nM; CC50 (HSC-2): 39300 nM; CC50 (HSC-3): 39300 nM; CC50 [8]: 39300 nM; CC50 [9]: 39300 nM; CC50 [10]: 39300 nM
38 | O=C(NNS(=O)(=O)c1ccc(F)cc1)N1N=C(c2ccc(F)cc2)CC1c1ccc(F)cc1 (configuration not stated) |  |  |  |  |  | MIC (Escherichia coli): 25 µg/mL (≈ 52.7 µM); MIC (Aspergillus fumigatus): 25 µg/mL (≈ 52.7 µM); MIC (Aspergillus niger): 25 µg/mL (≈ 52.7 µM); MIC (Aspergillus flavus): 25 µg/mL (≈ 52.7 µM); MIC [7]: 0.8 µg/mL (≈ 1.69 µM); MIC (Staphylococcus aureus): 25 µg/mL (≈ 52.7 µM); MIC (Bacillus subtilis): 25 µg/mL (≈ 52.7 µM); MIC (Pseudomonas aeruginosa): 25 µg/mL (≈ 52.7 µM); MIC (Candida albicans): 25 µg/mL (≈ 52.7 µM)
39 | Clc1ccc(C2CC(c3cccc4ccccc34)=NN2)cc1 (configuration not stated) |  |  |  | 29.67 | 43.33 | 

From ChEMBL document CHEMBL5260848, “Recent advancements in the development of bioactive pyrazoline derivatives” (Eur J Med Chem, 2020)
